Laboratory results reported in US9861616B2, “Methods for treating respiratory diseases and formulations therefor” (priority 2013, dated 2018).

Columns and labels:
[1] = system: B. cepacia strains from cystic fibrosis patients; test: Macrobroth dilution MICs, CF strains; format: cell-based; conditions: 2 B. cepacia strains from cystic fibrosis patients
Procedure: (§1) Two strains each of mucoid P. aeruginosa (both pyocyanin positive) and […] MRSA (only one strain with gold colonies) isolated from patients at a CF clinic were tested. Additionally, 2 B. cepacia strains were acquired, from Hershey Medical Center. All strains were identified by standard methods. Only one strain per patient was tested. MLVA was done on all strains to examine clonality, and confirmed that examination is not taking place on only one or a few clones. Strains will be stored in skim milk at −70° C. until use.
(§2) Original MICs of each strain to CEM-101 and other comparators were tested by CLSI microdilution methodology. Trays were obtained from Trek, Inc., Cleveland, Ohio. Time-kill macrobroth MIC dilution by CLSI was performed for all synergy testing.

[2] = system: P. aeruginosa strains from cystic fibrosis patients; test: Macrobroth dilution MICs, CF strains; format: cell-based; conditions: 2 P. aeruginosa strains from cystic fibrosis patients
Procedure: as §1, §2

[3] = system: MRSA SA 2230, SA 2232; test: Time-kill macrobroth MICs; format: cell-based, S. aureus
Procedure: as §2
(§3) Two of the MRSA strains were chosen and tested for synergy, together with the 4 Gram-negative strains mentioned above. Broth macrodilution formed the basis of MICs used in time-kill experiments, as detailed below. The kill kinetics of each drug was tested alone by incubating an initial inoculum of 5×10^5 to 5×10^6 cfu/mL with drug concentrations at the MIC, three dilutions above and three dilutions below the MIC (½, ¼ and ⅛×MIC). Viability counts were performed after 0, 3, 6, 12 and 24 h incubation at 37° C. in a shaking water bath by plating onto trypticase soy-5% sheep blood agar plates.

[4] = system: B. cepacia BCEP 953, BCEP 954; test: Time-kill macrobroth MICs; format: cell-based
Procedure: as §2, §3

[5] = system: P. aeruginosa PSAR 461, PSAR 468; test: Time-kill macrobroth MICs; format: cell-based
Procedure: as §2, §3

[6] = Tissue levels in repeat-dose toxicology studies; format: in vivo, rodents and non human primates; conditions: repeated dosing
[7] = Rodent ADME studies using radiolabeled CEM-101; format: in vivo; conditions: IV 20 mg/kg
Procedure: This relationship was confirmed in rodent ADME studies using radiolabeled CEM-101. […] After IV dosing at 20 mg/kg, the data was more variable and lung/plasma ratios of 17.6 for males and 6.2 for females were observed.

[8] = Tissue distribution; format: in vivo, monkey
[9] = Intrapulmonary penetration into ELF and AM, Phase 1 clinical study; format: in vivo, healthy adult subjects; conditions: 400 mg orally daily for 5 days, Day 5, 24 hour period
Procedure: CEM-101 is evaluated for the treatment of patients with community-acquired bacterial pneumonia. The penetration of CEM-101 into the epithelial lining fluid (ELF) and alveolar macrophages (AM) is assessed in a Phase 1 clinical study.
30 subjects received 400 mg of CEM-101 orally daily for 5 days. On Day 5, each subject underwent a single bronchoscopy and bronchoalveolar lavage at 1 of 5 time points (3, 6, 9, 12 or 24 h post-dose) to obtain ELF and AM samples (6 subjects/time point). Plasma samples were collected pre-dose on Days 1 to 5 and serially post-dose on Day 5 and 6. The samples collected were assayed for CEM-101 using LC/MS/MS. Urea in the plasma and ELF was used to correct the ELF CEM-101 concentrations. Noncompartmental pharmacokinetic (PK) analysis using the median concentrations at each time point was used to calculate Day 5 AUC0-24. In addition, a population PK model (PPM) was used to determine Day 5 AUC0-24 for each subject in plasma and ELF. Intrapulmonary penetration of CEM-101 into the ELF and AM was determined by dividing the Day 5 AUC0-24 of each matrix by the Day 5 plasma AUC0-24.

[10] = Plasma and ELF pharmacokinetics in healthy mice; format: in vivo
Procedure: (§4) CEM-101 PK data were obtained from healthy mice administered single CEM-101 doses ranging from 0.625 to 40 mg/kg. Plasma and ELF were collected over 24 h (3 mice/time point) and assayed for CEM-101. Urea in plasma and ELF was used to correct ELF concentrations. Neutropenic mice infected with 10^8 CFU of 1 of 5 S. pneumoniae isolates via inhalation were administered daily CEM-101 doses (0.156 to 160 mg/kg) via oral gavage. Dose-fractionation was performed for 1 isolate; CEM-101 was administered to the other 4 isolates as a Q6h or Q12h regimen. PK and PK-PD were evaluated using S-ADAPT 1.56.
(§5) A 3-compartment model with a parallel first-order and capacity-limited clearance and a capacity-limited first pass effect with fitted lag-times best described the plasma and ELF data (r2=0.98 and 0.83 for observed vs fitted concentrations, respectively). ELF to total- and free-drug (f) plasma (based on protein binding of 91.8% in mice) AUC0-24 ratios were 0.22 and 2.7, respectively. ELF and f plasma AUC0-24:MIC ratios were most predictive of efficacy (r2=0.85 for ELF and f plasma). […] AUC0-24:MIC ratio was the PK-PD index most predictive of efficacy for CEM-101. PK-PD targets based on these relationships will inform dose selection for future clinical studies.

[11] = system: S. pneumoniae; test: PK-PD analysis in neutropenic murine-lung infection model; format: in vivo; conditions: neutropenic mice
Procedure: Using a murine-lung infection model, epithelial lining fluid (ELF) and plasma PK-PD measures most closely associated with CEM-101 efficacy against S. pneumoniae and targets based on PK-PD relationships for such indices were identified.
as §4

[12] = Protein binding; format: in vitro ADME; conditions: mice
Text: as §5

CC[C@H]1OC(=O)[C@@](C)(F)C(=O)[C@H](C)[C@@H](O[C@@H]2O[C@H](C)C[C@H](N(C)C)[C@H]2O)[C@](C)(OC)C[C@@H](C)C(=O)[C@H](C)[C@H]2N(CCCCn3cc(-c4cccc(N)c4)nn3)C(=O)O[C@]12C [CEM-101, solithromycin]
MIC Range [1]: 8 to 32 µg/mL
MIC Range [2]: 64 µg/mL
Time-kill Macrobroth MIC ([3]; strain SA 2230): 0.125 µg/mL
Time-kill Macrobroth MIC ([3]; strain SA 2232): 0.125 µg/mL
Time-kill Macrobroth MIC ([4]; strain BCEP 953): 8.0 µg/mL
Time-kill Macrobroth MIC ([4]; strain BCEP 954): 32.0 µg/mL
Time-kill Macrobroth MIC ([5]; strain PSAR 461): 64.0 µg/mL
Time-kill Macrobroth MIC ([5]; strain PSAR 468): 32.0 µg/mL
tissues with highest concentrations [6]: highest in liver, spleen, lung, and salivary gland
lung/plasma ratio ([7]; females): 6.2
lung/plasma ratio ([7]; males): 17.6
heart concentration relative to plasma ([8]; monkey): 54 fold
liver concentration relative to plasma ([8]; monkeys, 200 mg/kg/d): 711 fold
lung concentration relative to plasma ([8]; monkeys, 200 mg/kg/d): 503 fold
exposure in AM compared to plasma [9]: > 180 times
exposure in ELF compared to plasma [9]: > 8 times
ELF to total-drug plasma AUC0-24 ratio [10]: 0.22
ELF to free-drug (f) plasma AUC0-24 ratio ([10]; based on protein binding of 91.8%): 2.7
ELF AUC0-24:MIC ratio associated with 1-log 10 CFU reduction from baseline [11]: 15.1
ELF AUC0-24:MIC ratio associated with 2-log 10 CFU reduction from baseline [11]: 59.8
ELF AUC0-24:MIC ratio associated with net bacterial stasis [11]: 1.26
f plasma AUC0-24:MIC ratio associated with 1-log 10 CFU reduction from baseline [11]: 6.31
f plasma AUC0-24:MIC ratio associated with 2-log 10 CFU reduction from baseline [11]: 12.8
f plasma AUC0-24:MIC ratio associated with net bacterial stasis [11]: 1.65
protein binding [12]: 91.8%
